From US20030224978A1, “Compounds and methods for modulating apoptosis” (McGill University, priority 1996, published 2003) come the findings set out here.

Broadly, the pIC50 is the IC50 on a negative log10 scale, so that one unit is a factor of ten. Low readings indicate a large IC50, high ones a small IC50.

Series [1] deals with angiogenesis in chick embryonic chorioallantoic membranes. The series can be described thus: Chick chorioallantoic membrane angiogenesis assay. The conditions noted are these: 3, 17, and 33 μg/mesh. The series is classed as in vivo. Here is the method: The chick chorioallantoic membrane assay was used to assess the effects of cyclic peptides on angiogenesis (Iruela-Arispe et al., Molecular Biology of the Cell 6:327-343, 1995). Cyclic peptides were embedded in a mesh composed of vitrogen at concentrations of 3, 17, and 33 μg/mesh. The meshes were then applied to 12-day-old chick embryonic chorioallantoic membranes. After 24 hours, the effects of the peptides on angiogenesis were assessed by computer assisted morphometric analysis.
For each concentration of cyclic peptide, the percent inhibition of angiogenesis (relative to the level of angiogenesis in the absence of cyclic peptide) is provided. Assays were performed in the presence (+) or absence (−) of […] VEGF. For example, the cyclic peptide N-Ac-CHAVC-NH2 (SEQ ID NO:10) inhibited angiogenesis by 46%, 51%, and 51% at concentrations of 3, 17, and 33 μg/mesh, respectively.

A short description of series [2]: in vitro. In kind it is cell-based. Conditions: human. Here is the method: (§1) N-Ac-CHAVC-NH2 (SEQ ID NO:10) and the control peptide N-Ac-CHGVC-NH2 (SEQ ID NO:20) were evaluated for possible cytotoxic effects on human microvascular endothelial (HMVEC; Clonetics), human umbilical vein endothelial (HUVEC; ATCC #CRL-1730), IAFp2 (human fibroblast cell line; Institute Armand-Frapier, Montreal, Quebec), WI-38 (human fibroblast cell line; ATCC #CCL-75), MDA-MB231 (human breast cancer cell line; ATCC #HTB-26), and PC-3 (human prostate cancer cell line; ATCC #CRL-1435) cells utilizing the MTT assay (Plumb et al., Cancer Res. 49:4435-4440, 1989). Neither of the peptides was cytotoxic at concentrations up to and including 100 μM. Similarly, neither of the peptides was capable of inhibiting the proliferation of the above cell lines at concentrations up to 100 μM, as judged by ^3H-thymidine incorporation assays.

Series [3] can be described thus: in vitro. The series is classed as cell-based. The conditions noted are these: human. Here is the method: as §1
The source holds these as a separate data set.

Series [4] in a line: in vitro. The series is classed as cell-based. The conditions noted are these: human. Here is the method: as §1
This is another data set of the same source.

Series [5] in a line: in vitro. The series is classed as cell-based. Conditions: human. As for the experimental part:
as §1
This is another data set of the same source.

Each structure is given as a SMILES string. pIC50: −log10 of the molar value. Positions of bridges follow the written chain, without caps; N, C: chain ends. Residues, ends and D or L forms follow the SMILES beside them.

`CC(=O)N[C@H]1CSSC[C@@H](C(N)=O)NC(=O)[C@H](Cc2c[nH]cn2)NC(=O)[C@H](C)NC(=O)[C@H](C(C)C)NC1=O` [N-Ac-CVAHC-NH2] (Ac-CVAHC-NH2; disulfide 1-5 (inferred)): the “inhibition of angiogenesis, in words” value in series [1] is “relatively inactive”. Further, the pIC50 in the series “in vitro [2]”, in “in vitro [3]”, in “in vitro [4]” and in the series “in vitro [5]” was < 4.00 in each case.
